Results on two compounds are retold here after patent publication US20230285481A1, “TREATMENT OF CANCER HARBORING MUTATIONS IN THE TP53 GENE AND/OR POST-TRANSLATIONAL MODIFICATIONS IN THE P53 PROTEIN WITH PARVOVIRUSES” (UNIVERSIDAD AUTÓNOMA DE MADRID, priority 2018, published 2023).

Format in all cases: cell-based, human
Test [1] concerns U373-MG glioblastoma cells. The test can be described thus: MVM infection markers (NS1, Pp53-S15, vDNA) by cytometry, IF-confocal and western blot in U373-MG. The source says:
In all the experiments, a minimum of 30,000 events per sample were acquired in a FACSCantoII cytometer (BD Biosciences), which were pre-selected by a region based on their size and complexity (FSC and SSC parameters, respectively) in order to exclude cellular debris and other contaminating particles. The CellQuest software (BD Biosciences) was used to acquire the events and the FlowJo software (Tree Star) was used to analyze the data. The cell cycle analysis was in accordance to [Gil-Ranedo, J., Hernando, E., Riolobos, L., Dominguez, C., Kann, M, and José M Almendral. 2015. The mammalian cell cycle regulates nuclear parvovirus capsid assembly. PlosPathogens, 11; 11 (6): e1004920]. For staining, cells were permeabilized with PBS+0.1% triton X-100 for 10 minutes at room temperature, then blocked with the same buffer supplemented with 1% FCS for 20 minutes. Cells were re-suspended in PBS (pH 7.2)+0.5% BSA and the primary antibodies indicated in the figures were added followed by 1 h stirring at 37° C. Cells were washed in PBS and the secondary antibodies were added and incubated similarly. Two further washes in PBS were made before analyzing the samples in the flow cytometer.
Immunofluorescence analyses were performed on neurospheres of hGSCs (human glioblastoma stem cells) and established adherent cell lines as follows: • Neurosphere staining. The cell spheres were fixed for 30 minutes with paraformaldehyde (PFA) 4%, then permeabilized for 10 minutes at room temperature with 0.1% Triton X-100 (Merck) in PBS, and blocked by incubating 20 minutes with 0.1% Triton X-100 and 10% fetal bovine serum (Sigma) in PBS. Neurospheres were incubated in the same buffer with the primary antibodies indicated in the figures for 1 h at 37° C., and finished by four five-minute PBS washes. Then neurospheres were incubated with the secondary antibodies at appropriate concentrations in the same buffer and conditions, and finally stained with DAPI for half an hour and mounted embedding at 37° C. in 0.8% agarose-LGT prepared in PBS. Embedded neurospheres were applied as 200 microliters drops on pre-cooled large (2×3 cm) coverslips and stored at 4° C. in the dark until confocal analysis. • Adherent cells. The cell lines were seeded on coverslips, treated as indicated in the figures and fixed for 10 minutes with 4% paraformaldehyde. Staining with antibodies was carried out essentially as described above for the neurospheres. Cells were mounted with Fluoromount G (Southern Biotech). Preparations were kept at least 16 h at room temperature in the dark before observation under a microscope. • Analysis of virus replication by FISH. This method was used to determine the degree of replication of the parvovirus MVM genome. The probe used was a mixture of three DNA oligonucleotides labeled at the 3′ terminal end with the Cy5 fluorophore, and complementary to different sequences of the MVM genome. Cells adhered and fixed in 4% paraformaldehyde were permeabilized for 10 minutes with 0.2% Triton X-100 (Merck) in PBS and equilibrated for 5 minutes at room temperature in 2×SSC (0.3 M NaCl; 30 mM Na2C6H5O7, pH 7) supplemented with 15% formamide. Hybridization was with 500 ng/ml of each oligonucleotide in FISH buffer (5×SSC, 0.5% SDS, 10% dextran sulfate, 50% formamide) for 2.5 hours at 37° C. The preparations were washed twice with 2×SSC, 15% formamide for 30 minutes. […]

The test system of test [2] is U373-MG glioblastoma cells. The test can be described thus: Clonogenic analysis of cell viability (colony formation) in U373-MG. The settings on record: single agent: CisPt 1-hour treatment, or MVMp singly inoculated at two MOI.
Procedure: Consequently, the CisPt dose effect on different MVMp life cycle parameters, and on p53 phosphorylation and functional signaling in U373-MG cells, was analyzed. For this, the U373-MG cells treated with Cis-Platinum doses (10-120 microM) for 1 hour at 37° C. were inoculated with MVMp to allow adsorption, and then of the infection was allowed to progress for 24 hours. Cells were sampled and processed for virus macromolecular markers and Pp53-S15 determinations.
We finally analyzed whether these MVM/CisPt cooperative effects impact cancer cells viability, and therefore whether they imply a therapeutic significance.
Test [3] concerns U87-MG glioblastoma cells. The test can be described thus: MVM infection markers (NS1, Pp53-S15, vDNA) by IF-confocal, Southern and western blot in U87-MG. In general terms: In western blotting, separated proteins are transferred to a membrane and probed.
Procedure: Immunofluorescence analyses were performed on neurospheres of hGSCs (human glioblastoma stem cells) and established adherent cell lines as follows: • Neurosphere staining. The cell spheres were fixed for 30 minutes with paraformaldehyde (PFA) 4%, then permeabilized for 10 minutes at room temperature with 0.1% Triton X-100 (Merck) in PBS, and blocked by incubating 20 minutes with 0.1% Triton X-100 and 10% fetal bovine serum (Sigma) in PBS. Neurospheres were incubated in the same buffer with the primary antibodies indicated in the figures for 1 h at 37° C., and finished by four five-minute PBS washes. Then neurospheres were incubated with the secondary antibodies at appropriate concentrations in the same buffer and conditions, and finally stained with DAPI for half an hour and mounted embedding at 37° C. in 0.8% agarose-LGT prepared in PBS. Embedded neurospheres were applied as 200 microliters drops on pre-cooled large (2×3 cm) coverslips and stored at 4° C. in the dark until confocal analysis. • Adherent cells. The cell lines were seeded on coverslips, treated as indicated in the figures and fixed for 10 minutes with 4% paraformaldehyde. Staining with antibodies was carried out essentially as described above for the neurospheres. Cells were mounted with Fluoromount G (Southern Biotech). Preparations were kept at least 16 h at room temperature in the dark before observation under a microscope. • Analysis of virus replication by FISH. This method was used to determine the degree of replication of the parvovirus MVM genome. The probe used was a mixture of three DNA oligonucleotides labeled at the 3′ terminal end with the Cy5 fluorophore, and complementary to different sequences of the MVM genome. […] The images were processed with Adobe Photoshop CS5 programs (Adobe Systems Incorporated) and ImageJ/FIJI (http://rsb.info.nih.gov/ij/) taking the same samples as a zero-signal reference without antibodies (auto-fluorescence control), or only with secondary antibodies. […]

`N.N.[Cl][Pt][Cl]` [CisPt, Cisplatin]: in test [1] (MVMp infected U373-MG, 5 to 20 microM CisPt), the “NS1 levels by western blot” value was “increasing NS1 levels”. Moreover, the “virus genome (vDNA) replication levels” value in test [1] (MVMp infected U373-MG, IF-confocal, CisPt dose effect) was “benefitted from 10 microM CisPt but not from higher doses”. The “percentage of cells expressing NS1 and level of NS1 expression” value in test [1] (MVMp infected U373MG, flow cytometry, combined treatment with single dose of CD versus simple infection) is listed as “highest increase”. In test [1] (U373-MG, IF-confocal, 5-20 microM Cis-Pt, 1 hour, then MVMp 24 hours), the Pp53-S15 levels result was “significant increase”. Also, the Pp53-S15 induction entry in test [1] (U373MG, flow cytometry, single dose, also in treated non-infected cells) is reported as “generalized Pp53-S15 induction in all cells”. Further, the “cell viability (clonogenic assay)” value in test [2] was “progressively decreased the viability”. Besides, the “percentage of NS1+ cells after drug pre-treatment” value in test [3] (U87-MG treated with different Cis-Pt doses prior to MVMp infection) is listed as “very significant increase”. Moreover, in test [3] (U87-MG, Cis-Pt dose effect, MVMp infection), the “MVMp genome replication (vDNA) after drug pre-treatment” value is reported as “benefitted from the 10 or 20 microM Cis-Pt treatment, but not from higher doses”.

As to `O=c1[nH]cc(F)c(=O)[nH]1` [5FU, 5-fluorouracil], in test [3] (uninfected U87-MG cells, IF-confocal), the “p53 phosphorylation at the Ser15 residue” value is “substantially increased”.
